Assay results: patent US20240148821A1, “PHARMACEUTICAL USE OF CYCLIC PEPTIDE COMPOUND” (CHUGAI SEIYAKU KABUSHIKI KAISHA, priority 2021, published 2024)
Numbered stars: 1 amine (or outer) side, 2 acyl side, 3 side chain; on linkers, the order of the positions; unused ones are H or OH. Bridge positions count the residues as written; N and C are the ends. Square brackets hold non-standard residues; d marks the D form. Peptide text beside a SMILES is read from it. * marks the point of attachment. hPhe(3-Cl-4-CF3) = N[C@@H](CCc1ccc(C(F)(F)F)c(Cl)c1)C(=O)O; hPhe(3-F,4-CF3) = N[C@@H](CCc1ccc(C(F)(F)F)c(F)c1)C(=O)O; NEtPhe(4-CF3) = CCN[C@@H](Cc1ccc(C(F)(F)F)cc1)C(=O)O; NMePhe(4-CF3) = CN[C@@H](Cc1ccc(C(F)(F)F)cc1)C(=O)O; NPrAsp = CCCN([C@@H](CC(=O)[*:3])C(=O)[*:2])[*:1]; X25 = COc1ccc(C[C@@H](C(=O)[*:2])N(C)[*:1])cn1; NMedβ3hAla = C[C@H](CC(=O)[*:2])N(C)[*:1]; NMeGly(cPent) = CN[C@H](C(=O)O)C1CCCC1; NMeGly(cBu) = CN[C@H](C(=O)O)C1CCC1; NMeCha = CN[C@@H](CC1CCCCC1)C(=O)O; Hyp = O=C(O)[C@@H]1C[C@@H](O)CN1; NMeChg = CN[C@H](C(=O)O)C1CCCCC1; NMeI = CC[C@H](C)[C@H](NC)C(=O)O; NMeE = CN[C@@H](CCC(=O)O)C(=O)O; NMeD = CN[C@@H](CC(=O)O)C(=O)O; NMeL = CN[C@@H](CC(C)C)C(=O)O; NMeS = CN[C@@H](CO)C(=O)O; NMeA = CN[C@@H](C)C(=O)O; Piperidide = C1CCN(*)CC1; Pyrrolidide = C1CCN(*)C1; Ac5c = NC1(C(=O)O)CCCC1; Aze = O=C(O)[C@@H]1CCN1; Ac4c = NC1(C(=O)O)CCC1; Sar = CNCC(=O)O; Propyl = CCC*

Assays:
[1] = target: protein-protein interaction between Kras and SOS1 (biotin-tagged human Kras loaded with GDP, His-tagged human SOS1) (Homo sapiens (Human), UniProt P01116, G12D); assay: Protein-protein interaction inhibition between Kras and SOS1 (KrasG12D-SOS PPI) using AlphaScreen; type: biochemical; details: AlphaScreen; biotin-tagged human Kras loaded with GDP, His-tagged human SOS1; read-out: KRAS G12D-SOS PPI IC50;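 also: kras produced in E. coli, Ni-coupled donor beads and streptavidin acceptor beads, excitation 680 nm with emission detected at 520–620 nm via singlet oxygen transfer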
[2] = test system: Human pancreatic cancer cell line AsPC-1 (G12D mutation Kras); assay: AsPC-1 cell growth inhibition (AsPC-1 CGI); type: cell-based; details: read-out: AsPC-1 cell growth inhibition, 50% growth inhibitory concentration (IC50 value); 96 hours, CellTiter-Glo, values classified in ranges
Protocol: Test compounds were serially dilated with dimethyl sulfoxide, and 200 nL was then dispensed to a U-bottom 96-well plate using Labcyte Echo. […] The cell suspension was dispensed to a. plate containing a test compound at 100 μL per well and incubated at 37° C. in a 5% carbon dioxide gas incubator. 96 hours later, 80 μL of CellTiter-Glo (Promega) was added to each well and fluorescence was measured.

`CCCN1C(=O)[C@H](C2CCCC2)N(C)C(=O)C2(CCCC2)NC(=O)[C@@H]2CCCN2C(=O)[C@H](CCc2ccc(C(F)(F)F)c(Cl)c2)NC(=O)CN(C)C(=O)[C@H](C2CCC2)N(C)C(=O)[C@@H]2CCN2C(=O)[C@H](C)N(C)C(=O)[C@H]([C@@H](C)CC)NC(=O)[C@H](CC(C)C)N(C)C(=O)C[C@H]1C(=O)N1CCCCC1` [Compound 524] ([NMeL]I[NMeA][Aze][NMeGly(cBu)][Sar][hPhe(3-Cl-4-CF3)]P[Ac5c][NMeGly(cPent)][NPrAsp]-Piperidide; lactam N-11) was tested, and the IC50 [1] was 82 nM and the IC50 [2] was greater than 500 nM.
In the case of `CCCOC[C@H]1C(=O)N(C)CC(=O)N[C@@H](CCc2ccc(C(F)(F)F)c(Cl)c2)C(=O)N2CCC[C@H]2C(=O)NC2(CCCC2)C(=O)N(C)[C@@H]([C@@H](C)CC)C(=O)N(C)[C@H](C)CC(=O)N(C)[C@@H](CC(C)C)C(=O)N[C@@H]([C@@H](C)CC)C(=O)N(C)[C@@H](C)C(=O)N2CC[C@H]2C(=O)N1C` [Compound 529] (cyclo([Ac5c][NMeI][NMedβ3hAla][NMeL]I[NMeA][Aze][NMeS](Propyl)[Sar][hPhe(3-Cl-4-CF3)]P)), the IC50 [1] is reported as 8.2 nM and the IC50 [2] is reported as no more than 20 nM.
`CCO[C@@H]1C[C@H]2C(=O)NC3(CCC3)C(=O)N(C)[C@@H]([C@@H](C)CC)C(=O)N(C)[C@H](C)CC(=O)N(C)[C@@H](CC(C)C)C(=O)N[C@@H]([C@@H](C)CC)C(=O)N(C)[C@@H](C)C(=O)N3CC[C@H]3C(=O)N(CC)[C@@H](Cc3ccc(C(F)(F)F)cc3)C(=O)N(C)CC(=O)N[C@@H](CCc3ccc(C(F)(F)F)c(Cl)c3)C(=O)N2C1` [Compound 547] (cyclo([Ac4c][NMeI][NMedβ3hAla][NMeL]I[NMeA][Aze][NEtPhe(4-CF3)][Sar][hPhe(3-Cl-4-CF3)][Hyp](Et))) showed an IC50 [1] of 1 nM and an IC50 [2] of no more than 20 nM.
Work on `CC[C@H](C)[C@@H]1NC(=O)[C@H](CC(C)C)N(C)C(=O)C[C@@H](C(=O)N(C)C)N(C)C(=O)[C@H]([C@@H](C)CC)N(C)C(=O)C2(CCCC2)NC(=O)[C@@H]2CCCN2C(=O)[C@H](CCc2ccc(C(F)(F)F)c(F)c2)NC(=O)CN(C)C(=O)[C@H](C2CCCC2)N(C)C(=O)[C@@H]2CCN2C(=O)[C@H](C)N(C)C1=O` [Compound 555] ([NMeL]I[NMeA][Aze][NMeGly(cPent)][Sar][hPhe(3-F,4-CF3)]P[Ac5c][NMeI][NMeD]-NMe2; lactam N-11) yielded an IC50 [1] of 2.6 nM and an IC50 [2] of no more than 20 nM.
With `CCCOC[C@H]1C(=O)N(C)CC(=O)N[C@@H](CCc2ccc(C(F)(F)F)c(Cl)c2)C(=O)N2CCC[C@H]2C(=O)NC2(CCCC2)C(=O)N(C)[C@@H]([C@@H](C)CC)C(=O)N(C)[C@H](C(=O)N2CCCC2)CC(=O)N(C)[C@@H](CC(C)C)C(=O)N[C@@H]([C@@H](C)CC)C(=O)N(C)[C@@H](C)C(=O)N2CC[C@H]2C(=O)N1C` [Compound 567] ([NMeL]I[NMeA][Aze][NMeS](Propyl)[Sar][hPhe(3-Cl-4-CF3)]P[Ac5c][NMeI][NMeD]-Pyrrolidide; lactam N-11) the IC50 [1] was 1.5 nM and the IC50 [2] was no more than 20 nM.
`CC[C@H](C)[C@@H]1NC(=O)[C@H](CC(C)C)N(C)C(=O)C[C@@H](C)N(C)C(=O)[C@H](C2CCCC2)N(C)C(=O)C2(CCCC2)NC(=O)[C@@H]2CCCN2C(=O)[C@H](CCc2ccc(C(F)(F)F)c(Cl)c2)NC(=O)CN(C)C(=O)[C@H](Cc2ccc(C(F)(F)F)cc2)N(C)C(=O)[C@@H]2CCN2C(=O)[C@H](C)N(C)C1=O` [Compound 587] (cyclo([Ac5c][NMeGly(cPent)][NMedβ3hAla][NMeL]I[NMeA][Aze][NMePhe(4-CF3)][Sar][hPhe(3-Cl-4-CF3)]P)) showed an IC50 [1] of 1.2 nM and an IC50 [2] of no more than 20 nM.
Molecule `CC[C@H](C)[C@@H]1NC(=O)[C@H](CC(C)C)N(C)C(=O)C[C@@H](C(=O)N2CCCC2)N(C)C(=O)[C@H](C2CCCC2)N(C)C(=O)C2(CCCC2)NC(=O)[C@@H]2CCCN2C(=O)[C@H](CCc2ccc(C(F)(F)F)c(Cl)c2)NC(=O)CN(C)C(=O)[C@H](Cc2ccc(C(F)(F)F)cc2)N(C)C(=O)[C@@H]2CCN2C(=O)[C@H](C)N(C)C1=O` [Compound 589] ([NMeL]I[NMeA][Aze][NMePhe(4-CF3)][Sar][hPhe(3-Cl-4-CF3)]P[Ac5c][NMeGly(cPent)][NMeD]-Pyrrolidide; lactam N-11) has an IC50 [1] of 0.49 nM and an IC50 [2] of no more than 20 nM.
Molecule `CC[C@H](C)[C@@H]1NC(=O)[C@H](CC(C)C)N(C)C(=O)C[C@@H](C(=O)N2CCCCC2)N(C)C(=O)[C@H](C2CCCCC2)N(C)C(=O)C2(CCCC2)NC(=O)[C@H](CCC(=O)NC)N(C)C(=O)[C@H](CCc2ccc(C(F)(F)F)c(Cl)c2)NC(=O)CN(C)C(=O)[C@H](CC2CCCCC2)N(C)C(=O)CN(C)C(=O)CN(C)C1=O` [Compound 590] ([NMeL]I[Sar][Sar][NMeCha][Sar][hPhe(3-Cl-4-CF3)][NMeE](NHMe)[Ac5c][NMeChg][NMeD]-Piperidide; lactam N-11) has an IC50 [1] of 1.4 nM and an IC50 [2] greater than 500 nM.
`CC[C@H](C)[C@@H]1NC(=O)[C@H](CC(C)C)N(C)C(=O)C[C@@H](C(=O)N2CCCCC2)N(C)C(=O)[C@H](C2CCCCC2)N(C)C(=O)C2(CCCC2)NC(=O)[C@H](Cc2ccc(OC)nc2)N(C)C(=O)[C@H](CCc2ccc(C(F)(F)F)c(Cl)c2)NC(=O)CN(C)C(=O)[C@H](CC2CCCCC2)N(C)C(=O)CN(C)C(=O)CN(C)C1=O` [Compound 592] ([NMeL]I[Sar][Sar][NMeCha][Sar][hPhe(3-Cl-4-CF3)][X25][Ac5c][NMeChg][NMeD]-Piperidide; lactam N-11) was tested, and the IC50 [1] was 26 nM and the IC50 [2] was greater than 500 nM.
